The results in this text go back to patent US10801035B2, “Plants having increased tolerance to herbicides” (BASF SE, priority 2011, dated 2020).

For this test, the system named is Synechococcus HPPD. The test is described as follows: HPPD activity assay, Synechococcus HPPD. The format is biochemical. Conditions: normalized on Hordeum HPPD. How it is done: HPPD produces homogentisic acid and CO2 from 4-hydroxyphenylpyruvate (4-HPP) and O2. The activity assay for HPPD is based on the analysis of homogentisic acid by reversed phase HPLC.
The assay mixture can contain 150 mM potassium phosphate buffer pH 7.0, 50 mM L-ascorbic acid, 1 μM FeSO4 and 7 μg of purified enzyme in a total volume of 1 ml. Inhibitors are dissolved in DMSO (dimethylsulfoxide) to a concentration of 20 mM or 0.5 mM, respectively. From this stock solution serial five-fold dilutions are prepared in DMSO, which are used in the assay. The respective inhibitor solution accounts for 1% of the assay volume. […]
Activities are normalized by setting the uninhibited enzyme activity to 100%. […] values are calculated using non-linear regression. […]
Inhibitors are dissolved in DMSO (dimethylsulfoxide) to a concentration of 0.5 mM. […] IC50 values are calculated using non-linear regression.
Using methods which are described in the above examples or well known in the art, purified, recombinant wildtype HPPD enzymes are characterized with respect to their kinetic properties and sensitivity towards HPPD inhibiting herbicides. Apparent michaelis constants (Km) and maximal reaction velocities (Vmax) are calculated by non-linear regression with the software GraphPad Prism 5 (GraphPad Software, La Jolla, USA) using a substrate inhibition model. […]

Consider `CC1=NOC(c2c(Cl)ccc(C3=C(O)c4ncccc4N(CC(F)F)S3(=O)=O)c2Cl)C1` (stereo not shown) [Inhibitor 1, 3-[2,4-dichloro-3-(3-methyl-4,5-dihydroisoxazol-5-yl)phenyl]-1-(2,2-difluoroethyl)-2,2-dioxo-pyrido[3,2-c]thiazin-4-ol], for which the “Normalized tolerance index (TI)” value was 2.2.
